Like-named read-outs stand apart in the source and are kept apart here.
Assays:
adenosine A1 receptor = molecular target: T1, adenosine A1 receptor (Rattus norvegicus, UniProt P25099); test: Adenosine A1 receptor binding (RBA-1), displacement of [3H]-CHA
T1 construct: Whole brain minus cerebellum and brainstem from male Long Evans rats (150-200 g) was homogenized; from tissue; host or cells: rat whole brain minus cerebellum and brainstem, male Long Evans
T1 sequence (P25099 1-326): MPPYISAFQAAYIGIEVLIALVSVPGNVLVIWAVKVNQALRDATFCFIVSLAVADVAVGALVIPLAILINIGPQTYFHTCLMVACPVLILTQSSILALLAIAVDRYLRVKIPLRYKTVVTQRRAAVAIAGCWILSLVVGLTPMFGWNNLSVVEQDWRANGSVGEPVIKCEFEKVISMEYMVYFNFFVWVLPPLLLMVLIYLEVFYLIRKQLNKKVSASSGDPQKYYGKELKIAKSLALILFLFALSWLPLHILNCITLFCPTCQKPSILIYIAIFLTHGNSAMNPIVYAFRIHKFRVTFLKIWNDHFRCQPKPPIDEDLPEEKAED
Method: Whole brain minus cerebellum and brainstem from male Long Evans rats (150-200 g) was homogenized in 30 volumes of ice-cold 0.05M Tris-HCl buffer pH 7.7 using a Brinkman Polytron PT-10, (setting number 6 for 20 seconds) and centrifuged for ten minutes at 20,000×g (Sorvall RC-2), 4° C. The supernatant was discarded, and the pellet was resuspended and centrifuged as before. The pellet was resuspended in 20 ml Tris-HCl buffer containing two International Units/ml of adenosine deaminase (Sigma type III from calf intestinal mucosa), incubated at 37° C. for 30 minutes, then subsequently at 0° C. for ten minutes. The homogenate was again centrifuged, and the final pellet was resuspended in ice-cold 0.05M Tris-HCl buffer pH 7.7 to a concentration of 20 mg/ml original wet tissue weight and used immediately.
Tissue homogenate (10 mg/ml) was incubated in 0.05M Tris-HCl buffer pH 7.7 containing 1.0 nM [^3 H]-N^6 -cyclohexyladenosine [^3 H]-CHA) with or without test agents in triplicate for one hour at 25° C. Incubation volume was 2 ml. Unbound [^3 H]-CHA was separated by rapid filtration under reduced pressure through Whatman glass fiber (GF/B) filters. The filters were rinsed three times with 5 ml of ice cold 0.05M Tris-HCl buffer pH 7.7. The radio-labeled ligand retained on the filter was measured by liquid scintillation spectrophotometry after shaking the filters for one hour or longer on a mechanical shaker in 10 ml of Beckman Ready-Solv HP scintillation cocktail.
Nonspecific binding was defined as the binding which occurred in the presence of 1 mM theophylline. […] The Scatchard plot was calculated by linear regression of the line obtained by plotting the amount of radioligand bound (pmoles/gram of tissue) versus [formula] Since the amount of radioligand bound was a small fraction of the total amount added, free radioligand was defined as the concentration (nM) of radioligand added to the incubation mixture. The Hill coefficient was calculated by linear regression of the line obtained by plotting the log of the bound radioligand vs the log of the [formula] The maximal number of binding sites (Bmax) was calculated from the Scatchard plot.

Swiss-Webster male mice [1] = test: Mouse Activity and Screen Test (MAST): inhibition of spontaneous locomotor activity; type: in vivo; conditions: 1 hour prior to testing
Method: Nine unfasted Swiss-Webster male mice weighing 20-30 g are equally divided into three groups for each drug dose to be tested. That is, data for each dose level was generated by three separate groups of three mice each. A minimum of three dose levels (10, 30, and 100 mg/kg) are tested for each drug. Treatments are administered intraperitoneally one hour prior to testing. All dosages are calculated as parent compound and given in volumes of 10 ml/kg. Compounds are dissolved or suspended in 0.2% Methocel. Control animals are injected with Methocel. Immediately following the screen test, the final phase of testing is initiated by placing each group of three mice in one actophotometer (Life Sciences, 22, 1067-1076, 1978). The actophotometer consists of a cylindrical chamber whose center is occupied by another cylinder which contains the illumination for six photocells located on the perimeter of the chamber. Six light-beam interruptions equal one count. Locomotor activity is recorded by computer at ten minute intervals for 60 minutes. Data: The data obtained from the screen test are expressed as percent of mice falling off the screen. Data derived from locomotor activity of drug treated mice are compared to the activity of vehicle treated animals and are expressed as percent inhibition of spontaneous locomotion. All percentages reported for inhibition of locomotion (LI) are based upon data accumulated for one hour. Both phases of testing are graded: A=60-100%; C=31-59%; and N=0-30%. An overall dose rating is obtained by the following criteria: […]

Swiss-Webster male mice [2] = test: Mouse Activity and Screen Test (MAST): screen test failure; type: in vivo; conditions: 1 hour prior to testing
Method: Nine unfasted Swiss-Webster male mice weighing 20-30 g are equally divided into three groups for each drug dose to be tested. That is, data for each dose level was generated by three separate groups of three mice each. A minimum of three dose levels (10, 30, and 100 mg/kg) are tested for each drug. Treatments are administered intraperitoneally one hour prior to testing. All dosages are calculated as parent compound and given in volumes of 10 ml/kg. Compounds are dissolved or suspended in 0.2% Methocel. Control animals are injected with Methocel. Testing: A two part testing procedure is started one hour postinjection. First, the screen test (ST) is performed (see Pharmac. Biochem. Behav. 6, 351-353, 1977). Briefly this test consists of placing mice on individual wire screens which are then rotated 180 degrees at the start of a 60 second observation period. The number of mice falling off the inverted screen is recorded. Data: The data obtained from the screen test are expressed as percent of mice falling off the screen. Data derived from locomotor activity of drug treated mice are compared to the activity of vehicle treated animals and are expressed as percent inhibition of spontaneous locomotion. All percentages reported for inhibition of locomotion (LI) are based upon data accumulated for one hour. Both phases of testing are graded: A=60-100%; C=31-59%; and N=0-30%. An overall dose rating is obtained by the following criteria: […]

[3] = 1.0 nM [3H]-CHA, rat whole brain minus cerebellum and brainstem, read-out: RBA-1 (IC50, adenosine A1 receptor affinity)

SMILES | IC50 (adenosine A1 receptor; [3]) [nM] | Inhibition of Mouse Locomotor Activity (Swiss-Webster male mice [1]; 0.1 mg/kg i.p.) [%] | Inhibition of Mouse Locomotor Activity (Swiss-Webster male mice [1]; 0.3 mg/kg i.p.) [%] | Inhibition of Mouse Locomotor Activity (Swiss-Webster male mice [1]; 1.0 mg/kg i.p.) [%] | Inhibition of Mouse Locomotor Activity (Swiss-Webster male mice [1]; 3.0 mg/kg i.p.) [%] | Inhibition of Mouse Locomotor Activity (Swiss-Webster male mice [1]; 10 mg/kg i.p.) [%] | Inhibition of Mouse Locomotor Activity (Swiss-Webster male mice [1]; 30 mg/kg i.p.) [%] | Inhibition of Mouse Locomotor Activity (Swiss-Webster male mice [1]; 100 mg/kg i.p.) [%] | Screen Test Failure (Swiss-Webster male mice [2]; 0.1 mg/kg i.p.) [%] | Screen Test Failure (Swiss-Webster male mice [2]; 0.3 mg/kg i.p.) [%] | Screen Test Failure (Swiss-Webster male mice [2]; 1.0 mg/kg i.p.) [%] | Screen Test Failure (Swiss-Webster male mice [2]; 3.0 mg/kg i.p.) [%] | Screen Test Failure (Swiss-Webster male mice [2]; 10 mg/kg i.p.) [%] | Screen Test Failure (Swiss-Webster male mice [2]; 30 mg/kg i.p.) [%] | Screen Test Failure (Swiss-Webster male mice [2]; 100 mg/kg i.p.) [%] | IC50 (adenosine A1 receptor) [nM] | Inhibition of Mouse Locomotor Activity (Swiss-Webster male mice [1]; 0.03 mg/kg i.p.) [%] | Screen Test Failure (Swiss-Webster male mice [2]; 0.03 mg/kg i.p.) [%]
OCC(O)CNc1ncnc2c1ncn2[C@@H]1O[C@H](CO)[C@@H](O)[C@@H]1O (stereo partly drawn) [Example 1, (R,S)-N^6 [2,3-Dihydroxypropyl]adenosine] | 9 | 46 | 96 | 97 | 99 | 100 | 100 | 99 | 8 | 100 | 100 | 100 | 100 | 100 | 100 |  |  | 
OC[C@@H](O)CNc1ncnc2c1ncn2[C@@H]1O[C@H](CO)[C@@H](O)[C@H]1O [Example 3] |  | -18 | 0 | 92 | 97 | 97 | 100 |  | 0 | 0 | 88 | 100 | 100 | 100 |  | 46 | -19 | 0
CC1(C)OCC(CNc2ncnc3c2ncn3[C@@H]2O[C@H](CO)[C@@H](O)[C@H]2O)O1 (stereo partly drawn) [Example 4, (R,S)-N^6-[2,3Dihydroxypropylisopropylidene]adenosine] | 430 |  | 6 | 27 | 23 | 96 | 93 | 99 |  | 0 | 0 | 0 | 66 | 99 | 99 |  |  | 
CC1(C)OC[C@@H](CNc2ncnc3c2ncn3[C@@H]2O[C@H](CO)[C@@H](O)[C@H]2O)O1 [Example 5, (R)-N^6-[2,3-Dihydroxypropylisopropylidene]-adenosine] | 440 |  | 40 | 39 | 69 | 48 | 98 |  |  | 0 | 11 | 11 | 77 | 100 |  |  |  | 
Nc1nc(NCC(O)CO)c2ncn([C@@H]3O[C@H](CO)[C@@H](O)[C@H]3O)c2n1 (stereo partly shown) [Example 8] | 34 |  | 56 | 98 | 98 | 99 | 100 | 99 |  | 0 | 88 | 99 | 99 | 99 | 99 |  |  | 
